Patent publication US20210230203A1, “Amphiphilic Kanamycin Compositions and Methods” (priority 2020, published 2021)
Converted amounts (≈) assume the structure as drawn. Read-outs that look alike come from different tables or passages of the source.

Tests used:
Coccidioldes sp. = experiment: microbe, parasite or virus in culture; assay type: cell-based, Coccidioides species; conditions: Coccidioides, Table 3, RPMI 0.165M MOPS, 24-72 hours
P. variotil = experiment: MIC against various species, CLSI M27 & M38 (Table 4); assay type: cell-based, Paecilomyces variotii; conditions: Paecilomyces variotii, P. variotil QC, RPMI 0.165M MOPS, 24-72 hours, read-out: Minimum inhibitory concentration 100%
B. dermatitidis = experiment: MIC against various B. dermatitidis isolates, CLSI M27 & M38; conditions: Blastomyces dermatitidis, RPMI 0.165M MOPS, 24-72 hours
Scedosporium = experiment: MIC against various species, CLSI M27 & M38 (Table 4); conditions: Scedosporium
L. prolificans = experiment: as above; conditions: Lomentospora prolificans, read-out: Minimum inhibitory concentration 100%
[1] = tested on: Cryptococcus neoformans H99; experiment: MIC against fungal strains (Table 1); assay type: cell-based; conditions: Cryptococcus neoformans, H99, read-out: Minimum inhibitory concentration
Histoplasma capsulatum = experiment: microbe, parasite or virus in culture; assay type: cell-based; conditions: Histoplasma capsulatum, Table 3, RPMI 0.165M MOPS, 24-72 hours
P. variatii = experiment: MIC against filamentous and dimorphic fungi, CLSI M27 & M38 (Table 3); assay type: cell-based, Paecilomyces variotii; conditions: Paecilomyces variotii, P. variatii MYA-3630, RPMI 0.165M MOPS, 24-72 hours, read-out: Minimum inhibitory concentration 100%
Rhodotorula pilimanae = experiment: MIC against fungal strains (Table 1); assay type: cell-based; conditions: Rhodotorula mucilaginosa, read-out: Minimum inhibitory concentration
A. furnigatus = experiment: MIC against various species, CLSI M27 & M38 (Table 4); conditions: Aspergillus fumigatus
Candida albicans 64124 = experiment: MIC against fungal strains (Table 1); assay type: cell-based; conditions: read-out: Minimum inhibitory concentration
Candida albicans MYA2876 = experiment: MIC against fungal strains (Table 1); assay type: cell-based; conditions: Candida albicans, MYA2876, read-out: Minimum inhibitory concentration
Fusarium = experiment: MIC against various species, CLSI M27 & M38 (Table 4); assay type: cell-based; conditions: 24-72 hours
[2] = tested on: Fusarium graminearum B4-5A; experiment: microbe, parasite or virus in culture; assay type: cell-based; conditions: Fusarium graminearum, B45A, read-out: Minimum inhibitory concentration

C[C@@H](c1ncncc1F)[C@](O)(Cn1cncn1)c1ccc(F)cc1F [Voriconazole, reference compound]
MIC (Coccidioldes sp.; read-out: Minimum inhibitory concentration 100%, Coccidioldes sp. Cocci1): 0.25 mg/L (≈ 0.716 µM) | MIC (Coccidioldes sp.; read-out: Minimum inhibitory concentration 100%, Coccidioldes sp. Cocci2): 2 mg/L (≈ 5.73 µM) | MIC (Coccidioldes sp.; read-out: Minimum inhibitory concentration 100%, Coccidioldes sp. DI17-143): 0.125 mg/L (≈ 0.358 µM) | MIC (P. variotil): 0.125 mg/L (≈ 0.358 µM) | MIC (B. dermatitidis; read-out: Minimum inhibitory concentration 100%, B. dermatitidis BD1): 0.06 mg/L (≈ 0.172 µM) | MIC (B. dermatitidis; read-out: Minimum inhibitory concentration 100%, B. dermatitidis BD2): ≤ 0.03 mg/L | MIC (B. dermatitidis; read-out: Minimum inhibitory concentration 100%, B. dermatitidis BD3): 0.125 mg/L (≈ 0.358 µM) | MIC (Scedosporium; read-out: Minimum inhibitory concentration 100%, Scedosporium SA1, RPMI 0.165M MOPS, 24-72 hours): 1 mg/L (≈ 2.86 µM) | MIC (Scedosporium; read-out: Minimum inhibitory concentration 100%, Scedosporium SB1, RPMI 0.165M MOPS, 24-72 hours): 2 mg/L (≈ 5.73 µM) | MIC (L. prolificans): > 16 mg/L | MIC [1]: 0.125 mg/L (≈ 0.358 µM) | MIC (Histoplasma capsulatum; read-out: Minimum inhibitory concentration 100%, Histoplasma capsulatum HC1): 0.125 mg/L (≈ 0.358 µM) | MIC (Histoplasma capsulatum; read-out: Minimum inhibitory concentration 100%, Histoplasma capsulatum HC2): ≤ 0.03 mg/L | MIC (Histoplasma capsulatum; read-out: Minimum inhibitory concentration 100%, Histoplasma capsulatum HC3): ≤ 0.03 mg/L | MIC (P. variatii): 0.125 mg/L (≈ 0.358 µM) | MIC (Rhodotorula pilimanae): 8 mg/L (≈ 22.9 µM) | MIC (A. furnigatus; read-out: Minimum inhibitory concentration 100%, A. furnigatus AF1, RPMI 0.165M MOPS, 24-72 hours): 1 mg/L (≈ 2.86 µM) | MIC (A. furnigatus; read-out: Minimum inhibitory concentration 100%, A. furnigatus AF2, RPMI 0.165M MOPS, 24-72 hours): 8 mg/L (≈ 22.9 µM) | MIC (A. furnigatus; read-out: Minimum inhibitory concentration 100%, A. furnigatus AF3, RPMI 0.165M MOPS, 24-72 hours): 4 mg/L (≈ 11.5 µM) | MIC (Candida albicans 64124): > 256 mg/L | MIC (Candida albicans MYA2876): 0.125 mg/L (≈ 0.358 µM) | MIC (Fusarium; Fusarium FO1, RPMI 0.165M MOPS, read-out: Minimum inhibitory concentration 100%): > 16 mg/L | Minimum inhibitory concentration 100% (Fusarium; Fusarium FO2, RPMI 0.165M MOPS): >16 mg/L | Minimum inhibitory concentration 100% (Fusarium; Fusarium FS1, RPMI 0.165M MOPS): >16 mg/L | MIC [2]: 32 mg/L (≈ 91.6 µM)
